The test system of the test is CD2F1 mice, L1210 leukemia ip, survival T/C. Nature of the test: NCI In Vivo Anticancer Drug Screen. Data for tumor model L1210 Leukemia (intraperitoneal) in CD2F1 (CDF1) mice. Conditions: endpoint: mean survival time, higher = longer survival. A digest of the protocol: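 Read-out first: treated-group measurement over vehicle-control measurement, expressed as a ratio. Animals bore a transplanted tumor line and were dosed with compound or vehicle.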

[1] abbreviates: dose: 100.0 mg/kg/injection, schedule: Q04DX003 (ip), vehicle: saline with Tween-80.
Where [2] appears, read: dose: 400.0 mg/kg/injection, schedule: Q04DX003 (ip), vehicle: saline with Tween-80.
Where [3] appears, read: dose: 100.0 mg/kg/injection, schedule: Q01DX009 (ip), vehicle: saline with Tween-80.
The mark [4] stands for this setting: dose: 200.0 mg/kg/injection, schedule: Q01DX009 (ip), vehicle: saline with Tween-80.
The mark [5] stands for this setting: dose: 400.0 mg/kg/injection, schedule: Q01DX009 (ip), vehicle: saline with Tween-80.
Where [6] appears, read: dose: 100.0 mg/kg/injection, schedule: Q01DX001 (ip), vehicle: saline.
Setting [7] is: dose: 100.0 mg/kg/injection, schedule: Q01DX009 (ip), vehicle: saline.
Setting [8] is: dose: 200.0 mg/kg/injection, schedule: Q01DX009 (ip), vehicle: saline.
Where [9] appears, read: dose: 400.0 mg/kg/injection, schedule: Q01DX009 (ip), vehicle: saline.
Where [10] appears, read: dose: 100.0 mg/kg/injection, schedule: Q01DX001 (ip), vehicle: saline with Tween-80.
Where [11] appears, read: dose: 200.0 mg/kg/injection, schedule: Q01DX001 (ip), vehicle: saline with Tween-80.
Where [12] appears, read: dose: 200.0 mg/kg/injection, schedule: Q04DX003 (ip), vehicle: saline with Tween-80.
The mark [13] stands for this setting: dose: 50.0 mg/kg/injection, schedule: Q01DX009 (ip), vehicle: saline with Tween-80.
The mark [14] stands for this setting: dose: 100.0 mg/kg/injection, schedule: Q04DX002 (ip), vehicle: saline with Tween-80.
[15] abbreviates: dose: 200.0 mg/kg/injection, schedule: Q04DX002 (ip), vehicle: saline with Tween-80.
Setting [16] is: dose: 400.0 mg/kg/injection, schedule: Q04DX002 (ip), vehicle: saline with Tween-80.
[17] abbreviates: dose: 100.0 mg/kg/injection, schedule: Q04DX003 (ip), vehicle: saline.
Setting [18] is: dose: 50.0 mg/kg/injection, schedule: Q04DX002 (ip), vehicle: saline with Tween-80.

Each structure is given as a SMILES string. Several values for one entry are separate records, joined by “and”; a condition that tells them apart may be missing. Equal entries are not always repeated. Toxic doses and inconclusive results are not listed.

As for `O=C(Nc1ccc(F)cc1)c1ccc(C(=O)Nc2ccc(F)cc2)cc1`, the T/C is 100 % of control under setting [1] and 94 % of control under setting [2].

For the compound `NC(=O)C1CCCCC1C(N)=O` (stereo unspecified), the T/C is, setting by setting: under setting [3], 105 % of control; under setting [4], 105 % of control; under setting [5], 103 % of control.

Turning to `CC(=O)OCCC/C(=C\c1ccc(Cl)c(Cl)c1)[N+](=O)[O-]`, the T/C under setting [6] is 100 % of control.

For the compound `NC(=O)C(c1ccccc1)N1CCOCC1` (stereo unspecified), the T/C under setting [7] was 100 % of control, the T/C under setting [8] was 101 % of control and the T/C under setting [9] was 105 % of control.

Regarding `CCOC(=O)C1CC2(CC(C(=O)O)C2)C1` (stereo unspecified), the T/C is 97 % of control under setting [6]; 93 % of control (dose: 200.0 mg/kg/injection, schedule: Q01DX001 (ip), vehicle: saline); 105 % of control (dose: 400.0 mg/kg/injection, schedule: Q01DX001 (ip), vehicle: saline).

On to `O=C(c1ccccc1)C1C(C(=O)c2ccccc2)C1c1ccccc1` (stereo unspecified), for which the T/C is, setting by setting: under setting [10], 87 % of control; under setting [11], 90 % of control; (dose: 400.0 mg/kg/injection, schedule: Q01DX001 (ip), vehicle: saline with Tween-80) 93 % of control.

Turning to `COC(=O)c1cc(C)ccc1O`, the T/C is 96 % of control under setting [3]; 90 % of control under setting [1]; 101 % of control under setting [4]; 93 % of control under setting [12]; 100 % of control under setting [2].

As for `CC1(C)CC(=O)C2=C(C1)OC1=C(C(=O)CC(C)(C)C1)C2c1ccccc1Cl`, the T/C was 102 % of control under setting [1], 100 % of control under setting [12] and 104 % of control under setting [2].

For `CCN(CC)CCNc1ncnc(N)c1C(=C(C)C)c1ccc(Cl)cc1`, the T/C under setting [13] is 96 % of control; the T/C under setting [10] was 94 % of control; the T/C under setting [3] is 96 % of control; the T/C under setting [11] is 86 % of control; the T/C under setting [4] was 87 % of control.

In the case of `O=C(O)c1ccc([N+](=O)[O-])cc1Br`, the T/C by setting is: under setting [14], 96 % of control; under setting [15], 107 % of control; under setting [16], 100 % of control.

Consider `CCOC(=O)c1cnc2c(cnn2CC)c1NN=C(C)C`, for which the T/C is 105 % of control under setting [17] and 105 % of control (dose: 200.0 mg/kg/injection, schedule: Q04DX003 (ip), vehicle: saline).

As to `O=C(O)C1C2C=CC(C2)C1C(=O)Nc1ccccc1` (stereo unspecified), the T/C is 97 % of control under setting [3], 97 % of control under setting [4] and 96 % of control under setting [5].

Consider `CS(=O)(=O)OCCN(CCOS(C)(=O)=O)c1ccc(N=Nc2ccccc2C(=O)O)cc1`, for which the T/C is, setting by setting: (dose: 1.56 mg/kg/injection, schedule: Q01DX009 (ip), vehicle: Klucel (hydroxypropylcellulose) (HPC)) 124 % of control; (dose: 3.12 mg/kg/injection, schedule: Q01DX009 (ip), vehicle: Klucel (hydroxypropylcellulose) (HPC)) 155 % of control; (dose: 6.25 mg/kg/injection, schedule: Q01DX009 (ip), vehicle: Klucel (hydroxypropylcellulose) (HPC)) 176 % of control.

For `COc1ccc(OC)c(-c2csc(=O)s2)c1`, the T/C is, setting by setting: (dose: 25.0 mg/kg/injection, schedule: Q04DX002 (ip), vehicle: Klucel (hydroxypropylcellulose) (HPC)) 107 % of control; (dose: 50.0 mg/kg/injection, schedule: Q04DX002 (ip), vehicle: Klucel (hydroxypropylcellulose) (HPC)) 96 % of control; (dose: 100.0 mg/kg/injection, schedule: Q04DX002 (ip), vehicle: Klucel (hydroxypropylcellulose) (HPC)) 102 % of control; (dose: 200.0 mg/kg/injection, schedule: Q04DX002 (ip), vehicle: Klucel (hydroxypropylcellulose) (HPC)) 102 % of control; (dose: 400.0 mg/kg/injection, schedule: Q04DX002 (ip), vehicle: Klucel (hydroxypropylcellulose) (HPC)) 94 % of control.

For the compound `Cc1ccc2nc3c(nc2c1)-c1cccc2cccc-3c12`, the T/C under setting [3] was 92 % of control, the T/C under setting [4] is 94 % of control and the T/C under setting [5] is 106 % of control.

As to `CCCCCCCCCCCCCCCC1CCCC(C)N1` (stereo unspecified), the T/C runs as follows: under setting [18], 90 % of control and 105 % of control; under setting [14], 87 % of control; under setting [15], 87 % of control.

Turning to `CCC1CCC(NC(C)=O)CC1` (stereo unspecified), the T/C under setting [10] was 96 % of control.

For `CC1(C)COC(=O)N1`, the T/C (dose: 75.0 mg/kg/injection, schedule: Q01DX009 (ip), vehicle: saline with Tween-80) is 104 % of control; the T/C under setting [17] is 108 % of control; the T/C (dose: 150.0 mg/kg/injection, schedule: Q01DX009 (ip), vehicle: saline with Tween-80) was 101 % of control.

For the compound `CC(CN=Cc1ccccc1[NH-])N=Cc1ccccc1[NH-].[Ni+2]` (stereo unspecified), the T/C reads like this: (dose: 6.25 mg/kg/injection, schedule: Q04DX002 (ip), vehicle: saline with Tween-80) 94 % of control; (dose: 12.5 mg/kg/injection, schedule: Q04DX002 (ip), vehicle: saline with Tween-80) 94 % of control; (dose: 25.0 mg/kg/injection, schedule: Q04DX002 (ip), vehicle: saline with Tween-80) 97 % of control; under setting [18], 94 % of control and 109 % of control.

`OCc1ccn2c1CCC2`: the T/C is, setting by setting: (dose: 12.5 mg/kg/injection, schedule: Q01DX009 (ip), vehicle: Klucel (hydroxypropylcellulose) (HPC)) 101 % of control; (dose: 50.0 mg/kg/injection, schedule: Q01DX009 (ip), vehicle: Klucel (hydroxypropylcellulose) (HPC)) 100 % of control; (dose: 100.0 mg/kg/injection, schedule: Q01DX009 (ip), vehicle: Klucel (hydroxypropylcellulose) (HPC)) 101 % of control.

Take `CC(=O)C/C=C(\C)CCC=C(C)C`: the T/C was 91 % of control (dose: 100.0 mg/kg/injection, schedule: Q04DX003 (ip), vehicle: acetone); 94 % of control (dose: 200.0 mg/kg/injection, schedule: Q04DX003 (ip), vehicle: acetone); 98 % of control (dose: 400.0 mg/kg/injection, schedule: Q04DX003 (ip), vehicle: acetone).

Regarding `O=C(CC(O)(C(F)(F)F)C(F)(F)F)c1ccc(Br)cc1`, the T/C is 106 % of control (dose: 100.0 mg/kg/injection, schedule: Q01DX009 (ip), vehicle: other); 100 % of control (dose: 200.0 mg/kg/injection, schedule: Q01DX009 (ip), vehicle: other); 95 % of control (dose: 400.0 mg/kg/injection, schedule: Q01DX009 (ip), vehicle: other).

As for `O=C(O)Cc1ccc(Cl)c(Cl)c1`, the T/C is, setting by setting: (dose: 50.0 mg/kg/injection, schedule: Q04DX003 (ip), vehicle: other) 97 % of control; (dose: 100.0 mg/kg/injection, schedule: Q04DX003 (ip), vehicle: other) 100 % of control; (dose: 200.0 mg/kg/injection, schedule: Q04DX003 (ip), vehicle: other) 96 % of control.

Regarding `COc1ccccc1NC(=O)Nc1cc([N+](=O)[O-])ccc1OC`, the T/C runs as follows: under setting [14], 96 % of control; under setting [15], 93 % of control; under setting [16], 86 % of control.

On to `C[N+](C)(C)CCO`, for which the T/C is 96 % of control under setting [7], 102 % of control under setting [8] and 90 % of control under setting [9].

As to `O=C(CNC(=O)Nc1cccc(C(F)(F)F)c1)N/N=C/c1ccccc1O`, the T/C is, setting by setting: (dose: 12.5 mg/kg/injection, schedule: Q01DX009 (ip), vehicle: saline with Tween-80) 95 % of control; (dose: 25.0 mg/kg/injection, schedule: Q01DX009 (ip), vehicle: saline with Tween-80) 87 % of control; under setting [13], 88 % of control; under setting [3], 100 % of control; under setting [4], 103 % of control.

As to `COC12C(COC(C)=O)C3=C(C(=O)C(C)=C(N4CCCCC4)C3=O)N1CC1NC12` (stereo unspecified), the T/C by setting is: (dose: 0.75 mg/kg/injection, schedule: Q01DX001 (ip), vehicle: distilled water + Tween-80) 97 % of control; (dose: 1.5 mg/kg/injection, schedule: Q01DX001 (ip), vehicle: distilled water + Tween-80) 103 % of control; (dose: 3.0 mg/kg/injection, schedule: Q01DX001 (ip), vehicle: distilled water + Tween-80) 105 % of control and 112 % of control; (dose: 6.0 mg/kg/injection, schedule: Q01DX001 (ip), vehicle: distilled water + Tween-80) 122 % of control and 105 % of control; (dose: 12.0 mg/kg/injection, schedule: Q01DX001 (ip), vehicle: distilled water + Tween-80) 112 % of control.

(Values after PubChem BioAssay AID256 (DTP/NCI, 2004).)
